Laboratory results published in the supplement of paper PMC11061612.

Columns and labels:
Assay in all cases: Bliss excess, mean over the matrix (fraction); higher = more synergy
[1] = test system: SHP-77 (Small Cell Lung Carcinoma)
In short: (§1)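 Cell lines grown in DMEM/F12 or RPMI with 10% FBS were plated in 1536-well plates and held 24 hours at 37°C, 5% CO2 before 72 hours of exposure to two-drug dose matrices, with DMSO typically at 0.2%. CellTiter-Glo 2.0 luminescence gave viability, which was converted to inhibition. Vehicle wells were set to 0 and blank wells to 1. Combination Emax is the second-highest inhibition in the matrix, and Bliss excess is the observed combination effect minus the expected EA + EB − EA·EB, where EA and EB are the single-agent effects.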

[2] = test system: GP5d (Colorectal Carcinoma)
In short: as §1

[3] = test system: MFE-280 (Endometrial Carcinoma)
In short: as §1

[4] = test system: KE-37 (T-Lymphoblastic Leukemia)
In short: as §1

[5] = test system: COLO-680N (Esophageal Squamous Cell Carcinoma)
In short: as §1

[6] = test system: NCI-H446 (Small Cell Lung Carcinoma)
In short: as §1

[7] = test system: FADU (Head and Neck Carcinoma)
In short: as §1

[8] = test system: LB996-RCC (Kidney Carcinoma)
In short: as §1

[9] = test system: REH (B-Lymphoblastic Leukemia)
In short: as §1

[10] = test system: HEC-1 (Endometrial Carcinoma)
In short: as §1

[11] = test system: TE-8 (Esophageal Squamous Cell Carcinoma)
In short: as §1

[12] = test system: LK-2 (Squamous Cell Lung Carcinoma)
In short: as §1

[13] = test system: PANC-03-27 (Pancreatic Carcinoma)
In short: as §1

[14] = test system: OAW-42 (Ovarian Carcinoma)
In short: as §1

[15] = test system: RKN (Other Solid Carcinomas)
In short: as §1

[16] = test system: RERF-LC-Sq1 (Squamous Cell Lung Carcinoma)
In short: as §1

LN-229 (Glioblastoma) = test system: LN-229 (Glioblastoma)
In short: as §1

[17] = test system: PSN1 (Pancreatic Carcinoma)
In short: as §1

[18] = test system: MKN45 (Gastric Carcinoma)
In short: as §1

[19] = test system: CAL-62 (Thyroid Gland Carcinoma)
In short: as §1

SMILES	Bliss excess [1]	Bliss excess [2]	Bliss excess [3]	Bliss excess [4]	Bliss excess [5]	Bliss excess [6]	Bliss excess [7]	Bliss excess [8]	Bliss excess [9]	Bliss excess [10]	Bliss excess [11]	Bliss excess [12]	Bliss excess [13]	Bliss excess [14]	Bliss excess [15]	Bliss excess [16]	Bliss excess (LN-229 (Glioblastoma))	Bliss excess [17]	Bliss excess [18]	Bliss excess [19]
Cc1c2c(nn1C)CSCc1cc(n(C)n1)CSc1cc(c3ccccc3c1)OCCCc1c(C(=O)O)n(C)c3c-2c(Cl)ccc13 [AZD5991] + C[C@@H](Nc1cc(F)cc(F)c1)c1cc(C(=O)N(C)C)cc2c(=O)cc(N3CCOCC3)oc12 [AZD8186] (first compound max 1 µM, 7x7, partner max 3 µM)	-0.0379	-0.0645	0.0185	-0.0459	0.0001	0.183	0.0315	0.0208	-0.024	-0.0143	-0.013	0.0056	-0.0432	0.0262	-0.0269	-0.0353	-0.0063	-0.0407	-0.0777	
Cc1c2c(nn1C)CSCc1cc(n(C)n1)CSc1cc(c3ccccc3c1)OCCCc1c(C(=O)O)n(C)c3c-2c(Cl)ccc13 [AZD5991] + C1CN(CCC1(C(=O)N[C@@H](CCO)C2=CC=C(C=C2)Cl)N)C3=NC=NC4=C3C=CN4 [Capivasertib] (first compound max 1 µM, 7x7, partner max 3 µM)	-0.0033	-0.0493	0.027	-0.0409	-0.0223	0.0419	0.0213	0.0013	-0.0557	-0.025	0.0306	-0.0103	0.002	0.0312	-0.0234	0.0125	0.0178	-0.0533	-0.0262	
CS(=O)(=O)CCNCc1ccc(-c2ccc3ncnc(Nc4ccc(OCc5cccc(F)c5)c(Cl)c4)c3c2)o1 [Lapatinib] + NC1(c2ccc(-c3nc4ccn5c(=O)[nH]nc5c4cc3-c3ccccc3)cc2)CCC1 [MK-2206] (first compound max 10 µM, 7x7, partner max 10 µM)	-0.0136		-0.006		0.0426	-0.0173			0.0194		-0.0004	0.0303	-0.0064	-0.0089	-0.0169		-0.0959	0.0205	-0.0466	-0.0034
Cc1c2c(nn1C)CSCc1cc(n(C)n1)CSc1cc(c3ccccc3c1)OCCCc1c(C(=O)O)n(C)c3c-2c(Cl)ccc13 [AZD5991] + CCN(CCO)CCCOc1ccc2c(Nc3cc(CC(=O)Nc4cccc(F)c4)[nH]n3)ncnc2c1 [AZD2811] (first compound max 1 µM, 7x7, partner max 1 µM)	-0.034	-0.0319	0.053	0.0133	0.007		0.132	-0.0388	0.0422	0.0547	-0.0138	-0.0115	0.0566	0.0173	-0.0015	0.043	0.0043	-0.0467	-0.0123	0.0397
CN(C)CCCOc1ccc(-c2ccc3ncc4c(c3c2)n(C2CCOCC2)c(=O)n4C)cn1 [AZD0156] + O=C(c1cc(Cc2n[nH]c(=O)c3ccccc23)ccc1F)N1CCN(C(=O)C2CC2)CC1 [Olaparib] (first compound max 3 µM, partner max 3 µM)	0.0544	0.0682	0.0591	0.0951	-0.0076	0.0788	0.0039	0.0071	0.143	-0.0173		0.154	-0.0236	0.0145	0.0042	0.0396	-0.0258	0.0124	-0.0028	0.0939
C[C@@H](c1ccc2nccn2c1)n1nnc2ncc(-c3cnn(C)c3)nc21 [Savolitinib] + CN(CC[C@H](CSC1=CC=CC=C1)NC2=C(C=C(C=C2)S(=O)(=O)NC(=O)C3=CC=C(C=C3)N4CCC(CC4)[C@H](C5=CC=CC=C5C6=CC=C(C=C6)Cl)O)S(=O)(=O)C(F)(F)F)CCO [AZD4320] (first compound max 1 µM, 7x7, partner max 1 µM)		-0.0339		-0.0327		0.112	-0.0378	-0.0392		-0.027				-0.0451		-0.0075	-0.0833			
C=CCn1c(=O)c2cnc(Nc3ccc(N4CCN(C)CC4)cc3)nc2n1-c1cccc(C(C)(C)O)n1 [AZD1775] + C1CN(CCC1(C(=O)N[C@@H](CCO)C2=CC=C(C=C2)Cl)N)C3=NC=NC4=C3C=CN4 [Capivasertib] (first compound max 3 µM, partner max 3 µM)	-0.0114	-0.0274	-0.0055	-0.0132	0.0133	0.0213	0.0615	-0.0587	0.0008	-0.0424		-0.0913	-0.0573	-0.0399	-0.0476	-0.0483	-0.062	-0.0238	-0.0736	0.0089
Cc1cc2ncnn2cc1Nc1ncc2c(n1)n(C1CCOCC1)c(=O)n2C [AZD7648] + C[C@@H]1COCCN1C2=NC(=NC(=C2)C3(CC3)[S@](=N)(=O)C)C4=C5C=CNC5=NC=C4 [AZD6738] (first compound max 10 µM, 7x7, partner max 10 µM)	-0.0139	-0.0401	0.0174	0.0286	0.0237	0.0335	-0.0093	-0.0199	-0.0088	-0.0339	-0.0122	0.0147	0.0016		0.0086	-0.0231	-0.0085	-0.0939	-0.0406	0.0264
COc1cccc(OCCCN)c1-c1cc(Nc2cnc(C#N)cn2)n[nH]1 [Prexasertib] + Cc1cc2ncnn2cc1Nc1ncc2c(n1)n(C1CCOCC1)c(=O)n2C [AZD7648] (first compound max 1 µM, 7x7, partner max 10 µM)	-0.0143	0.033	0.0032	-0.006	-0.0491	-0.008	-0.0383	0.0292	-0.0041	0.0762	-0.0448	-0.037	-0.0606		-0.0293	-0.0281	-0.0596	0.0106	-0.0229	-0.0128
COc1cccc(OCCCN)c1-c1cc(Nc2cnc(C#N)cn2)n[nH]1 [Prexasertib] + C[C@@H]1COCCN1C2=NC(=NC(=C2)C3(CC3)[S@](=N)(=O)C)C4=C5C=CNC5=NC=C4 [AZD6738] (first compound max 1 µM, 7x7, partner max 10 µM)	0.0645	-0.0157	-0.024	0.0043	0.0342	0.0078	-0.0333	0.0355	0.0032	-0.0434	-0.0122	-0.0182	-0.0577		-0.027	-0.0492	-0.0577	0.0334	-0.0931	-0.005
Cc1cc2ncnn2cc1Nc1ncc2c(n1)n(C1CCOCC1)c(=O)n2C [AZD7648] + O=C(c1cc(Cc2n[nH]c(=O)c3ccccc23)ccc1F)N1CCN(C(=O)C2CC2)CC1 [Olaparib] (first compound max 10 µM, 7x7, partner max 10 µM)	-0.0585	0.0009	-0.0011	0.0309	-0.0435	-0.0388	0.0107	-0.0152	-0.0373	0.0079	-0.0413	-0.0584	-0.0149		-0.021	-0.0095	-0.0816	-0.0315	-0.0106	-0.03
CCN(CCO)CCCOc1ccc2c(Nc3cc(CC(=O)Nc4cccc(F)c4)[nH]n3)ncnc2c1 [AZD2811] + C=CCn1c(=O)c2cnc(Nc3ccc(N4CCN(C)CC4)cc3)nc2n1-c1cccc(C(C)(C)O)n1 [AZD1775] (first compound max 1 µM, partner max 1 µM)	0.0241	0.08	0.0727	0.0353	-0.0147	0.015	0.0047	0.0623	0.0449	0.0124	-0.016	-0.0952	0.001		-0.0017	-0.0102	-0.0363	-0.0007	-0.0302	0.0127
COc1nnc2ccc(N3CCC(c4ccc(OCCN5CCN(C)C(=O)[C@H]5C)cc4)CC3)nn12 [AZD5153] + CN(CC[C@H](CSC1=CC=CC=C1)NC2=C(C=C(C=C2)S(=O)(=O)NC(=O)C3=CC=C(C=C3)N4CCC(CC4)[C@H](C5=CC=CC=C5C6=CC=C(C=C6)Cl)O)S(=O)(=O)C(F)(F)F)CCO [AZD4320] (first compound max 1 µM, 7x7, partner max 1 µM)		0.0199		0.0222		0.107	0.0146	0.0253		0.0486				0.0913		0.0113	0.0357			
COc1cccc(OCCCN)c1-c1cc(Nc2cnc(C#N)cn2)n[nH]1 [Prexasertib] + C=CCn1c(=O)c2cnc(Nc3ccc(N4CCN(C)CC4)cc3)nc2n1-c1cccc(C(C)(C)O)n1 [AZD1775] (first compound max 1 µM, partner max 1 µM)	0.0413	0.035	0.176	0.0311	-0.0054	0.0829	0.084	0.0427	0.114	0.109	0.0893	0.0739	-0.0327		0.117	0.0621	-0.0177	0.178	-0.0561	0.137
C=CCn1c(=O)c2cnc(Nc3ccc(N4CCN(C)CC4)cc3)nc2n1-c1cccc(C(C)(C)O)n1 [AZD1775] + C[C@@H]1COCCN1C2=NC(=NC(=C2)C3(CC3)[S@](=N)(=O)C)C4=C5C=CNC5=NC=C4 [AZD6738] (first compound max 1 µM, partner max 10 µM)	0.0598	0.0418	0.0536	0.0552	0.0196	0.0581	0.0676	0.011	0.0406	0.0694	0.0126	-0.0086	-0.0426		-0.0029	0.0211	-0.0069	-0.0188	-0.0711	-0.061
